Results taken from PMC7321161, “The Intriguing Effects of Substituents in the N-Phenethyl Moiety of Norhydromorphone: A Bifunctional Opioid from a Set of “Tail Wags Dog” Experiments” (Molecules, 2020).
Where “and” joins values, the source holds several entries; their conditions need not be identical. Equal entries are not always repeated. Entries after “also recorded” stand apart in the source; their conditions may differ. Where two headings read alike, the source gives them in different places.

What was measured:
[1] = target: T1, human δ-receptor (OPRMD1) (Homo sapiens, UniProt P41143); test: cell-based; format: cell-based
T1 construct: host or cells: HitHunter CHO-K1 cells
T1 sequence (P41143 whole entry): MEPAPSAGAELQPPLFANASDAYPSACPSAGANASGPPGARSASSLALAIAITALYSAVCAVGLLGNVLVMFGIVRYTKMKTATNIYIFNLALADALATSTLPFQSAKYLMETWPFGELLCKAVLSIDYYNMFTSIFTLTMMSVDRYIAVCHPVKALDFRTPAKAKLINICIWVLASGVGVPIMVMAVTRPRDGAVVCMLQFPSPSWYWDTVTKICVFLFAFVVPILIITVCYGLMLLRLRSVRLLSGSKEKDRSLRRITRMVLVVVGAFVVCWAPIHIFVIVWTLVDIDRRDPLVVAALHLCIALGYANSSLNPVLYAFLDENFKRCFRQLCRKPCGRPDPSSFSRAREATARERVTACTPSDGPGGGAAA

[2] = target: T2, κ-opioid receptor (KOR) (Rattus norvegicus, UniProt P34975); test: Opioid receptor binding, κ sites ([3H]U69,593), rat brain homogenate; settings: radioligand displacement at 100 nM
T2 construct: Frozen whole rat brains excluding cerebellum were thawed on ice; from tissue; host or cells: whole rat brain excluding cerebellum, membrane homogenate
T2 sequence (P34975 whole entry): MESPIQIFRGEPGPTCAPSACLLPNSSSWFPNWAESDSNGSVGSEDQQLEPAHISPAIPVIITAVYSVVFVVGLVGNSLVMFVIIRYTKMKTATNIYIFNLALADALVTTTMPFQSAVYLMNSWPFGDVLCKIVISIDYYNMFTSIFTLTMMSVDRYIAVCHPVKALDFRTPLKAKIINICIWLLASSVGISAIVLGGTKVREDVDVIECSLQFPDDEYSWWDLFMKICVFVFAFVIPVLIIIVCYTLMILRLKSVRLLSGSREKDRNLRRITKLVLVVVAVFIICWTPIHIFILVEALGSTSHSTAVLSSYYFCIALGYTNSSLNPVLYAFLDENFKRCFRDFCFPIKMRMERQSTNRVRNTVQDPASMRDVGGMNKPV

[3] = target: T3, human κ-opioid receptor (OPRK1) (Homo sapiens, UniProt P41145); test: cell-based
T3 construct: host or cells: HitHunter CHO-K1 cells
T3 sequence (P41145 whole entry): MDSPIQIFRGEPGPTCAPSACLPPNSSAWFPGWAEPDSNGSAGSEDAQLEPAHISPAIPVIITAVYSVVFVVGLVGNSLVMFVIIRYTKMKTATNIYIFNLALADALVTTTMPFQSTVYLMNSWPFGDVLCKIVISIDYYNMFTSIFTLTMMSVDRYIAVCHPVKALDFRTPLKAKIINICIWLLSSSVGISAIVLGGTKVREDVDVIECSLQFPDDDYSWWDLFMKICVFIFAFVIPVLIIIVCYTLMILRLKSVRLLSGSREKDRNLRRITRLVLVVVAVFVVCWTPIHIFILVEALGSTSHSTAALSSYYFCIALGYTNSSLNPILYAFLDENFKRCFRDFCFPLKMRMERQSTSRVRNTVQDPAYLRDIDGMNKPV

[4] = tested on: squirrel monkeys; test: Operant responding (FR10 food reinforcement) in squirrel monkeys; settings: squirrel monkeys
[5] = as above; settings: male, monkey, in vivo
[6] = target: T4, human μ-opioid receptor (OPRM1) (Homo sapiens, UniProt P35372); test: cell-based
T4 construct: host or cells: HitHunter CHO-K1 cells
T4 sequence (P35372 whole entry): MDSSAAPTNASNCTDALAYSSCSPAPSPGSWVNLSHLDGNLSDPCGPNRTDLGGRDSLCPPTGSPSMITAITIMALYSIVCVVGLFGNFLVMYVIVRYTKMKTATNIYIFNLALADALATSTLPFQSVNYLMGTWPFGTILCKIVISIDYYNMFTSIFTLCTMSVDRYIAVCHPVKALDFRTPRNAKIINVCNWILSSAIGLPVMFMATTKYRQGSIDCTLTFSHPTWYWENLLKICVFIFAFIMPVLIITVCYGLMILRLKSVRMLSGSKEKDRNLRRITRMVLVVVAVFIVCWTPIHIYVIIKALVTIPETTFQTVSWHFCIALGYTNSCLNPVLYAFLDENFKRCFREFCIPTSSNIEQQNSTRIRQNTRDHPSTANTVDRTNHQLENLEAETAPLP

[7] = tested on: Swiss Webster mice; test: Respiration rate and arterial oxygen saturation in mice (MouseOx pulse oximeter)
[8] = target: T5, μ-opioid receptor (MOR) (Rattus norvegicus, UniProt P33535); test: Opioid receptor binding, μ sites ([3H]DAMGO), rat brain homogenate
T5 construct: Frozen whole rat brains excluding cerebellum were thawed on ice; from tissue; host or cells: whole rat brain excluding cerebellum, membrane homogenate
T5 sequence (P33535 whole entry): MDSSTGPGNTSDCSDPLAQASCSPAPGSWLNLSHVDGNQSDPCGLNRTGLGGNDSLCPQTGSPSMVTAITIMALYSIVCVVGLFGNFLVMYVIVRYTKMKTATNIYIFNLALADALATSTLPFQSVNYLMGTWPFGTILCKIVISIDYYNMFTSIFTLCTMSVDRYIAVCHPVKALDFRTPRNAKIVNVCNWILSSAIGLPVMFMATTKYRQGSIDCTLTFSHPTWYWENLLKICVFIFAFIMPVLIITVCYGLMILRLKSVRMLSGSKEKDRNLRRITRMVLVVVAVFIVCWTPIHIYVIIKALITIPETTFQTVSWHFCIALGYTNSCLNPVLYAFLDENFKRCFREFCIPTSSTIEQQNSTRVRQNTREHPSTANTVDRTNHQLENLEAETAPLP

[9] = tested on: squirrel monkeys; test: Squirrel monkey ventilation (whole-body plethysmograph, air or 5% CO2); format: in vivo, Saimiri sciureus
Method: (§1) Gas (either air or a 5% CO2 in air mixture) was introduced to and extracted from the chamber at a constant flow rate of 5 L/min. Experimental sessions consisted of 4–6 consecutive 30 min cycles, each comprising a 15 min exposure to air followed by a 15 min exposure to 5% CO2. Drug effects were determined using cumulative dosing procedures, and injections were administered following each exposure to 5% CO2. Respiratory rate and tidal volume (mL/breath) were recorded over 1 min periods and were multiplied to provide minute volumes. Data from the last three minutes of each exposure to air or CO2 were averaged and used for analysis of drug effects on ventilation.

[10] = as above; format: in vivo, Saimiri sciureus; settings: male, monkey, in vivo, other: injection; squirrel monkeys; dose required to decrease minute volume in 5% CO2 to 50% of baseline; read-out: ED50 Respiratory Depression
Method: as §1

[11] = tested on: squirrel monkeys; test: Warm-water tail-withdrawal latency in squirrel monkeys; format: in vivo, Saimiri sciureus; settings: for ED50: Saimiri, in Primates
[12] = target: T6, δ-opioid receptor (DOR) (Rattus norvegicus, UniProt P33533); test: Opioid receptor binding, δ sites ([3H]DADLE), rat brain homogenate
T6 construct: Frozen whole rat brains excluding cerebellum were thawed on ice; from tissue; host or cells: whole rat brain excluding cerebellum, membrane homogenate
T6 sequence (P33533 whole entry): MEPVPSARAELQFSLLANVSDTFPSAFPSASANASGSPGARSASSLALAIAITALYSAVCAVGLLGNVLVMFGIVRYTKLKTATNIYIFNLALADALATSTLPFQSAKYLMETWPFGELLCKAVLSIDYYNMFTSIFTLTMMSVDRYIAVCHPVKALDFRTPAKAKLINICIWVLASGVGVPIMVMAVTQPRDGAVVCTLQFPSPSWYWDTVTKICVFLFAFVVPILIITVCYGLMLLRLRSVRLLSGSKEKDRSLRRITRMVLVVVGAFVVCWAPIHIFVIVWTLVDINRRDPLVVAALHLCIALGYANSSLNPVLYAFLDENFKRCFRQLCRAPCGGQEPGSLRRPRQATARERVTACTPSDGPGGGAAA

[13] = target: T7, rat MOR (Rattus norvegicus, UniProt P33535); test: Stimulation of [35S]GTPγS binding, C6 glioma cell membranes expressing MOR; format: biochemical
T7 construct: expressed in transfected cells; host or cells: C6 rat glioma cells, stably transfected; membranes
T7 sequence (P33535 whole entry): as the sequence (P33535 whole entry) above

[14] = target: T8, rat DOR (Rattus norvegicus, UniProt P33533); test: Stimulation of [35S]GTPγS binding, C6 glioma cell membranes expressing DOR; format: biochemical
T8 construct: expressed in transfected cells; host or cells: C6 rat glioma cells, stably transfected; membranes
T8 sequence (P33533 whole entry): as the sequence (P33533 whole entry) above

[15] = target: T9, human μ-opioid receptor β-arrestin-2 (Homo sapiens, UniProt P35372); test: cell-based
T9 construct: enzyme fragment for EFC (β-galactosidase ProLink fragment, by own knowledge of the PathHunter system); host or cells: PathHunter CHO cells
T9 sequence (P35372 whole entry, the tested form may be a part): as the sequence (P35372 whole entry) above

With `O=C1CCC2C3Cc4ccc(O)c5c4[C@@]2(CCN3CCc2ccc(Cl)cc2)[C@H]1O5` (stereo partly drawn) [Compound 2i, (7aR,12bS)-3-(4-Chlorophenethyl)-9-hydroxy-2,3,4,4a,5,6-hexahydro-1H-4,12-methanobenzofuro[3,2-e]-isoquinolin-7(7aH)-one] the “EC50 δ/μ ratio in the cAMP assay” value [1] was 10, the Emax ([1]; CHO-K1, read-out: DOR cAMP % Efficacy) was 84.8% and the EC50 ([1]; DOR cAMP Agonist Potency ± SEM) was 0.53 nM. The “KOR Binding, exploratory binding assay” value [2] was “NT (NT = not tested—inactive (<50% activity at 100 nM concentration in exploratory binding assays (displaced less than half of radioligand))”, the Emax ([3]; CHO-K1, read-out: KOR cAMP % Efficacy) was 76.6% and the EC50 ([3]; KOR cAMP Agonist Potency ± SEM) was 55 nM and 55.2 nM. For the same compound, the “Behavioral impairment (decreases in operant performance, reinforcers obtained)” value [4] was “dose-related behavioral impairment”, the ED50 [5] was 0.022 mg/kg and the EC50 ([6]; MOR cAMP Agonist Potency ± SEM) was 0.05 nM. For the same compound, the Emax ([6]; OPRM1, read-out: MOR cAMP % Efficacy) was 98.8%, the “Effect on oxygen saturation (SpO2) in mice” value ([7]; 6 min to 45 min post-injection, data not shown) was “neither morphine nor 2i had any effect” and the “Effect on respiration rate in mice” value ([7]; normal air, s.c., 2i 0.01–0.1 mg/kg, morphine 10 mg/kg, AUC 6–45 min post injection, vs saline) was “did not depress respiration rate; also recorded: no effect on respiration rate”. For the same compound, the Ki [8] was 1.09 ± 0.06 nM, the “Effect on ventilation (minute volume) during exposure to 5% CO2 mixed in air (hypercapnia)” value [9] was “significantly reduced minute volume in 5% CO2; also recorded: respiration was depressed; also recorded: significantly decreased ventilation” and the “Effect on respiratory rate or ventilation (minute volume) during exposure to air alone” value ([9]; 2i 0.003–0.1 mg/kg, morphine 0.03–3.0 mg/kg) was “did not depress respiration; also recorded: neither 2i (0.003–0.1 mg/kg) nor morphine (0.03–3.0 mg/kg) had effects”. For the same compound, the ED50 [10] was 0.057 mg/kg, the ED50 ([11]; dose required to increase tail withdrawal latency to 5 s, read-out: ED50 Antinociception (52 °C)) was 0.015 mg/kg and the ED50 ([11]; read-out: ED50 Antinociception (50 °C), tail withdrawal, 50 °C water) was 0.01 mg/kg. For the same compound, the “Antinociceptive effect, tail withdrawal latency at 50, 52 and 55 °C” value ([11]; cumulative doses) was “full effect at moderate (50 °C) and hot (52 °C) but not at very hot (55 °C) water temperatures”, the Ki [12] was 7.89 ± 1.1 nM and the “δ/μ ratio in opioid receptor binding studies” value ([12]; DOR Ki / MOR Ki) was “about 7”. For the same compound, the EC50 [13] was 2 ± 1 nM, the “MOR activity type in the [35S]GTPγS assay” value ([13]; antagonist activity assumed from high MOR affinity and lack of stimulation) was “potent partial MOR agonist” and the “MOR % Stimulation, [35S]GTPγS” value ([13]; compared to standard maximal DAMGO) was 39.0 ± 2.1%. The “DOR activity type in the [35S]GTPγS assay” value [14] was “potent full DOR agonist”, the EC50 ([14]; DOR EC50, [35S]GTPγS, C6 cells expressing DOR, mean ± SEM) was 2.4 ± 0.7 nM and the “DOR % Stimulation, [35S]GTPγS” value ([14]; compared to standard maximal DPDPE) was 83.8 ± 3.7%. The “Bias Factor” value [15] was 0.82, the EC50 [15] was 2.44 nM and the Emax ([15]; read-out: MOR Mediated β-arrestin Recruitment (% Control, Emax DAMGO)) was 44.8%.
